From patent publication US10772893B2, “2-(morpholin-4-yl)-1,7-naphthyridines” (BAYER PHARMA AKTIENGESELLSCHAFT, priority 2014, dated 2020) come the findings set out here.

The test system of this test is HeLa cells. The test is described as follows: Proliferation assay, crystal violet staining. Particulars: Homo sapiens, 96 h, read-out: Inhibition of HeLa cell proliferation, HeLa cells, 4 days incubation.
Turning to `C[C@@H]1COCCN1c1cc(C2CCS(=O)(=O)CC2)c2ccnc(-c3ccn[nH]3)c2n1` [Example 204, 4-(1,1-dioxidotetrahydro-2H-thiopyran-4-yl)-2-[(3R)-3-methylmorpholin-4-yl]-8-(1H-pyrazol-5-yl)-1,7-naphthyridine], the IC50 is 568 nM.

For `COc1ccc(Sc2cc(N3CCOCC3)nc3c(-c4ccn[nH]4)nccc23)cc1` [Example 213, 4-[(4-methoxyphenyl)sulfanyl]-2-(morpholin-4-yl)-8-(1H-pyrazol-5-yl)-1,7-naphthyridine], the IC50 is more than 3000 nM.

As for `Cc1cc(-c2cc(N3CCOCC3)nc3c(-c4ccn[nH]4)nccc23)n[nH]1` [Example 214, 4-(5-methyl-1H-pyrazol-3-yl)-2-(morpholin-4-yl)-8-(1H-pyrazol-5-yl)-1,7-naphthyridine], the IC50 is more than 3000 nM.

Take `O=C1CCCN1c1cc(N2CCOCC2)nc2c(-c3ccn[nH]3)nccc12` [Example 215, 1-[2-(morpholin-4-yl)-8-(1H-pyrazol-5-yl)-1,7-naphthyridin-4-yl]pyrrolidin-2-one]: the IC50 was more than 3000 nM.

In the case of `Cc1ncccc1-c1cc(N2CCOC[C@H]2C)nc2c(-c3ccn[nH]3)nccc12` [Example 218, 2-[(3R)-3-methylmorpholin-4-yl]-4-(2-methylpyridin-3-yl)-8-(1H-pyrazol-5-yl)-1,7-naphthyridine], the IC50 is 300 nM.

Consider `CC(C)Oc1ncccc1-c1cc(N2CCOC[C@H]2C)nc2c(-c3ccn[nH]3)nccc12` [Example 219, 2-[(3R)-3-methylmorpholin-4-yl]-4-[2-(propan-2-yloxy)pyridin-3-yl]-8-(1H-pyrazol-5-yl)-1,7-naphthyridine], for which the IC50 was found to be 2980 nM.

With `c1cc(-c2cc(N3CCOCC3)nc3c(-c4ccn[nH]4)nccc23)ccn1` [Example 221, 2-(morpholin-4-yl)-8-(1H-pyrazol-5-yl)-4-(pyridin-4-yl)-1,7-naphthyridine], the IC50 is more than 3000 nM.

As for `COc1ccc(Sc2cc(N3CCOC[C@H]3C)nc3c(-c4ccn[nH]4)nccc23)cc1` [Example 222, 4-[(4-methoxyphenyl)sulfanyl]-2-[(3R)-3-methylmorpholin-4-yl]-8-(1H-pyrazol-5-yl)-1,7-naphthyridine], the IC50 came out at 975 nM.

Take `COc1cnccc1-c1cc(N2CCOC[C@H]2C)nc2c(-c3ccn[nH]3)nccc12` [Example 227, 4-(3-methoxypyridin-4-yl)-2-[(3R)-3-methylmorpholin-4-yl]-8-(1H-pyrazol-5-yl)-1,7-naphthyridine]: the IC50 amounted to 1940 nM.

For `C[C@@H]1COCCN1c1cc(-c2cc(Cl)cnc2F)c2ccnc(-c3ccn[nH]3)c2n1` [Example 229, 4-(5-chloro-2-fluoropyridin-3-yl)-2-[(3R)-3-methylmorpholin-4-yl]-8-(1H-pyrazol-5-yl)-1,7-naphthyridine], the IC50 was determined as 447 nM.

Turning to `C[C@@H]1COCCN1c1cc(-c2ccncc2F)c2ccnc(-c3ccn[nH]3)c2n1` [Example 230, 4-(3-fluoropyridin-4-yl)-2-[(3R)-3-methylmorpholin-4-yl]-8-(1H-pyrazol-5-yl)-1,7-naphthyridine], the IC50 came to 380 nM.

For the compound `Cc1cc(-c2cc(N3CCOC[C@H]3C)nc3c(-c4ccn[nH]4)nccc23)cnc1C` [Example 232, 4-(5,6-dimethylpyridin-3-yl)-2-[(3R)-3-methylmorpholin-4-yl]-8-(1H-pyrazol-5-yl)-1,7-naphthyridine], the IC50 came to 341 nM.

As to `Cc1ncc(-c2cc(N3CCOC[C@H]3C)nc3c(-c4ccn[nH]4)nccc23)cc1F` [Example 233, 4-(5-fluoro-6-methylpyridin-3-yl)-2-[(3R)-3-methylmorpholin-4-yl]-8-(1H-pyrazol-5-yl)-1,7-naphthyridine], the IC50 was 180 nM.

As for `Cc1cc(-c2cc(N3CCOC[C@H]3C)nc3c(-c4ccn[nH]4)nccc23)cs1` [Example 234, 2-[(3R)-3-methylmorpholin-4-yl]-4-(5-methylthiophen-3-yl)-8-(1H-pyrazol-5-yl)-1,7-naphthyridine], the IC50 is 1210 nM.

As to `COc1ccsc1-c1cc(N2CCOC[C@H]2C)nc2c(-c3ccn[nH]3)nccc12` [Example 235, 4-(3-methoxythiophen-2-yl)-2-[(3R)-3-methylmorpholin-4-yl]-8-(1H-pyrazol-5-yl)-1,7-naphthyridine], the IC50 came to 950 nM.

Take `C[C@@H]1COCCN1c1cc(-c2ccsc2Cl)c2ccnc(-c3ccn[nH]3)c2n1` [Example 236, 4-(2-chlorothiophen-3-yl)-2-[(3R)-3-methylmorpholin-4-yl]-8-(1H-pyrazol-5-yl)-1,7-naphthyridine]: the IC50 came to 792 nM.

Consider `C[C@@H]1COCCN1c1cc(-c2cncc3ccccc23)c2ccnc(-c3ccn[nH]3)c2n1` [Example 237, 4-(isoquinolin-4-yl)-2-[(3R)-3-methylmorpholin-4-yl]-8-(1H-pyrazol-5-yl)-1,7-naphthyridine], for which the IC50 worked out at 528 nM.

`C[C@@H]1COCCN1c1cc(-c2ccc(Cl)s2)c2ccnc(-c3ccn[nH]3)c2n1` [Example 238, 4-(5-chlorothiophen-2-yl)-2-[(3R)-3-methylmorpholin-4-yl]-8-(1H-pyrazol-5-yl)-1,7-naphthyridine]: the IC50 was determined as 1180 nM.

With `Cc1csc(-c2cc(N3CCOC[C@H]3C)nc3c(-c4ccn[nH]4)nccc23)c1` [Example 239, 2-[(3R)-3-methylmorpholin-4-yl]-4-(4-methylthiophen-2-yl)-8-(1H-pyrazol-5-yl)-1,7-naphthyridine], the IC50 worked out at 1130 nM.

For `C[C@@H]1COCCN1c1cc(C2CCSCC2)c2ccnc(-c3ccn[nH]3)c2n1` [Example 241, 2-[(3R)-3-methylmorpholin-4-yl]-8-(1H-pyrazol-5-yl)-4-(tetrahydro-2H-thiopyran-4-yl)-1,7-naphthyridine], the IC50 was found to be 171 nM.

Regarding `C[C@@H]1COCCN1c1cc(C2=CCCN(C)C2)c2ccnc(-c3ccn[nH]3)c2n1` [Example 242, 2-[(3R)-3-methylmorpholin-4-yl]-4-(1-methyl-1,2,5,6-tetrahydropyridin-3-yl)-8-(1H-pyrazol-5-yl)-1,7-naphthyridine], the IC50 came out at 811 nM.

With `C[C@@H]1COCCN1c1cc(C2=CCN(C)CC2)c2ccnc(-c3ccn[nH]3)c2n1` [Example 243, 2-[(3R)-3-methylmorpholin-4-yl]-4-(1-methyl-1,2,3,6-tetrahydropyridin-4-yl)-8-(1H-pyrazol-5-yl)-1,7-naphthyridine], the IC50 is 360 nM.

For `C[C@@H]1COCCN1c1cc(C2=CCNCC2)c2ccnc(-c3ccn[nH]3)c2n1` [Example 245, 2-[(3R)-3-methylmorpholin-4-yl]-8-(1H-pyrazol-5-yl)-4-(1,2,3,6-tetrahydropyridin-4-yl)-1,7-naphthyridine], the IC50 worked out at 343 nM.

On to `C[C@@H]1COCCN1c1cc(-c2ccn(C3CCOCC3)n2)c2ccnc(-c3ccn[nH]3)c2n1` [Example 246, 2-[(3R)-3-methylmorpholin-4-yl]-8-(1H-pyrazol-5-yl)-4-[1-(tetrahydro-2H-pyran-4-yl)-1H-pyrazol-3-yl]-1,7-naphthyridine], for which the IC50 was found to be 2840 nM.

Turning to `C[C@@H]1COCCN1c1cc(-c2cnc(F)cc2F)c2ccnc(-c3ccn[nH]3)c2n1` [Example 247, 4-(4,6-difluoropyridin-3-yl)-2-[(3R)-3-methylmorpholin-4-yl]-8-(1H-pyrazol-5-yl)-1,7-naphthyridine], the IC50 amounted to 228 nM.
